# Test results: patent EP2167084B1, “AN ALLERGEN DOSAGE FORM COMPRISING AN ANTIHISTAMINE” (ALK-Abelló A/S, priority 2007, dated 2008)
# Experiment: Cross-over, single-centre investigation of the effect of desloratidine on local adverse effects caused by Phleum pratense pollen extract (Grazax)
# Type: in vivo, patients
# Conditions: 2.5 mg, half the daily dose for a person above 12 years of age, given with Grazax
# Text: Investigation of the effect of desloratidine on adverse effects such itching in or around the mouth and the lips, ithching throat, itching in the ears and eyes caused by Phleum pratense pollen extract
# The study was is was a cross-over, single-centre investigation.
# The patients participated on two single days (visit 1 and visit 2) separated by approximately two weeks to avoid development of tolerance due to Grazax treatment. The subjects received one Grazax 75,000 SQ-T on Visit 1 and if they reported treatment related local adverse events in the mouth and/or throat after intake they were eligible for Visit 2. If no treatment related adverse events were reported after Grazax intake on Visit 1 the subjects were excluded from the study. On visit 2, the subjects received 1 antihistamine (Aerius (Desloratadine) melting tablet 2.5 mg, i.e. orally-disintegrating tablet). Grazax was administered immediately after intake of antihistamine.
# AEs were reported on AE pages. AEs were rated mild, moderate or severe. Furthermore, the subjects rated the AE severity on a Visual Analogue Scale (VAS). The AEs of interest were itching mouth, itching throat or other local reactions.
# A total of 15 subjects attended visit 1. […] These were therefore eligible for visit 2. Key selection criteria were: • 1. […]
compound,measurement,value
Clc1ccc2c(c1)CCc1cccnc1C2=C1CCNCC1 [desloratidine],relief from the itching of the mouth and pharynx,sufficient to relieve most patients
